The test system of test [1] is Fusarium oxysporum. As to the kind of experiment: Antifungal activity against Fusarium oxysporum lycopersici assessed as zone of inhibition at 10 ug after 48 hrs. It is filed as functional, Fusarium oxysporum f. sp. lycopersici. As to conditions: read-out: DIZ.
Test [2] concerns Bacillus subtilis. As to the kind of experiment: Antibacterial activity against Bacillus subtilis assessed as zone of inhibition at 10 ug after 24 hrs. It is filed as functional. As to conditions: for zone of inhibition at 10 µg/disc: read-out: DIZ.
For test [3], the system named is Fusarium oxysporum. As to the kind of experiment: Antifungal activity against Fusarium oxysporum lycopersici after 48 hrs. The format is functional, Fusarium oxysporum f. sp. lycopersici.
Test [4] relates to Fusarium. As to the kind of experiment: Antifungal activity against Fusarium recini assessed as zone of inhibition at 10 ug after 48 hrs. The format is functional. The conditions noted are these: read-out: DIZ.
Test [5] deals with Escherichia coli. As to the kind of experiment: Antibacterial activity against Escherichia coli assessed as zone of inhibition at 10 ug after 24 hrs. It is filed as functional. The conditions noted are these: for zone of inhibition at 10 µg/disc: read-out: DIZ.
The test system of test [6] is Fusarium. As to the kind of experiment: Antifungal activity against Fusarium recini after 48 hrs. The format is functional.
For test [7], the system named is Escherichia coli. As to the kind of experiment: Antibacterial activity against Escherichia coli after 24 hrs. The format is functional.
For test [8], the system named is Bacillus subtilis. As to the kind of experiment: Antibacterial activity against Bacillus subtilis after 24 hrs. The format is functional.
Test [9] deals with Bacillus subtilis. As to the kind of experiment: Antibacterial activity against Bacillus subtilis at 25 to 100 ug after 24 hrs. It is filed as functional, organism-based.
The subject of test [10] is Escherichia coli. As to the kind of experiment: Antibacterial activity against Escherichia coli at 25 to 100 ug after 24 hrs. The format is functional, organism-based.

Activity calls are given as the source filed them. No cut-off for these calls is given here.

From ChEMBL document CHEMBL4261597, “1,2,3-Triazole fused with pyridine/pyrimidine as new template for antimicrobial agents: Regioselective synthesis and identification of potent N-heteroarenes” (2018) come the findings set out here.

As for `COc1ccc(-n2nnc3cccnc32)cc1`, the zone of inhibition at 10 µg/disc in the test on Fusarium oxysporum [1] was 2 mm; in the test with Fusarium [4], 3 mm. For the same molecule, the “diameter of the inhibition zone (DIZ)” value with Bacillus subtilis [2] and with Escherichia coli [5] was “inactive” in each case. Also, the MIC with Fusarium oxysporum [3] was found to be 100 µg; with Fusarium [6] it was 50 µg.
In the case of `COc1ccc(-n2nnc3cnc(Cl)cc32)cc1`, the zone of inhibition at 10 µg/disc in the test on Fusarium oxysporum [1] was 6 mm; in the test on Fusarium [4] it was 7 mm. Moreover, the “diameter of the inhibition zone (DIZ)” value in the test on Bacillus subtilis [2] and with Escherichia coli [5] was “inactive” in each case. The MIC in the test with Fusarium oxysporum [3] stood at 50 µg; with Fusarium [6], 25 µg.
With `Fc1ccc(-n2nnc3cnc(Cl)cc32)cc1`, the zone of inhibition at 10 µg/disc was determined as 3 mm in the test on Fusarium oxysporum [1] and 7 mm in the test on Fusarium [4]. Also, the “diameter of the inhibition zone (DIZ)” value in the test on Bacillus subtilis [2] and in the test on Escherichia coli [5] was “inactive” each time. Moreover, the MIC in the test with Fusarium oxysporum [3] and with Fusarium [6] was 50 µg each time.
Take `Fc1ccc(-n2nnc3cccnc32)cc1`: the zone of inhibition at 10 µg/disc worked out at 6 mm with Fusarium oxysporum [1], 12 mm in the test on Bacillus subtilis [2], 5 mm in the test on Fusarium [4] and 11 mm in the test on Escherichia coli [5]. Moreover, the MIC against Escherichia coli [7] turned out to be 100 µg; in the test on Bacillus subtilis [8] it was 25 µg; with Fusarium oxysporum [3], 75 µg; with Fusarium [6] it was 50 µg.
For the molecule `Cc1ccc(-n2nnc3cccnc32)c(C)c1`, the zone of inhibition at 10 µg/disc with Fusarium oxysporum [1] and in the test on Fusarium [4] was 6 mm each time. Also, the “diameter of the inhibition zone (DIZ)” value in the test on Bacillus subtilis [2] and with Escherichia coli [5] was “inactive” in each case. The MIC worked out at 75 µg in the test with Fusarium oxysporum [3] and 100 µg in the test with Fusarium [6].
With `Clc1cc2c(cn1)nnn2C1CCOCC1`, the zone of inhibition at 10 µg/disc in the test with Fusarium oxysporum [1] and in the test on Fusarium [4] was 6 mm each time. In addition, the “diameter of the inhibition zone (DIZ)” value in the test on Bacillus subtilis [2] and in the test on Escherichia coli [5] was “inactive” in each case. The MIC against Fusarium oxysporum [3] is 50 µg; with Fusarium [6], 25 µg.
Regarding `Clc1cc2c(cn1)nnn2Cc1ccccc1`, the zone of inhibition at 10 µg/disc was determined as 1 mm in the test on Fusarium oxysporum [1], 13 mm in the test with Bacillus subtilis [2], 7 mm in the test with Fusarium [4] and 10 mm in the test on Escherichia coli [5]. Moreover, the MIC was 25 µg against Escherichia coli [7], 25 µg against Bacillus subtilis [8], 100 µg against Fusarium oxysporum [3] and 25 µg in the test with Fusarium [6].
`Oc1ncnc2c1nnn2Cc1ccccc1`: the zone of inhibition at 10 µg/disc came out at 5 mm in the test with Fusarium oxysporum [1] and 6 mm in the test on Fusarium [4]. Also, the “diameter of the inhibition zone (DIZ)” value with Bacillus subtilis [2] and with Escherichia coli [5] was “inactive” in each case. For the same molecule, the result with Bacillus subtilis [9] and in the test with Escherichia coli [10] was inactive. In addition, the MIC worked out at 100 µg in the test with Fusarium oxysporum [3] and 50 µg with Fusarium [6].
`CN[C@@H]1[C@H](O[C@H]2[C@H](O[C@H]3[C@H](O)[C@@H](O)[C@H](N=C(N)N)[C@@H](O)[C@@H]3N=C(N)N)O[C@@H](C)[C@]2(O)C=O)O[C@@H](CO)[C@H](O)[C@H]1O` [STREPTOMYCIN]: the zone of inhibition at 10 µg/disc in the test with Bacillus subtilis [2] turned out to be 16 mm; in the test with Escherichia coli [5], 13 mm. In addition, the MIC against Escherichia coli [7] and against Bacillus subtilis [8] was 25 µg each time.
On to `c1cnc2c(c1)nnn2C1CCOCC1`, for which the zone of inhibition at 10 µg/disc was found to be 3 mm in the test on Fusarium oxysporum [1] and 5 mm in the test on Fusarium [4]. For the same molecule, the “diameter of the inhibition zone (DIZ)” value in the test with Bacillus subtilis [2] and in the test on Escherichia coli [5] was “inactive” throughout. The MIC turned out to be 75 µg against Fusarium oxysporum [3] and 50 µg in the test with Fusarium [6].
